In brackets after ≈: the same amount, converted by molar mass.
Assays:
Assay type in all cases: cell-based
Candida albicans [1] = test: In vitro antifungal activity test (MIC), Candida albicans; conditions: concentration at which growth is inhibited by 80% vs negative control, 35° C., 24 hours, RPMI 1640, alama blue; for MIC80: Candida albicans
Procedure: (§1) The antifungal activities of the compounds of the present invention were evaluated using Candida albicans as yeast fungus, and Aspergillus fumigatus as a filamentous fungus. The above fungi used were all purchased from American Type Culture Collection (ATCC). The strains used in the experiment were inoculated into a Sabouraud dextrose agar medium, and then cultured at 35° C. for a sufficient period of time, e.g., 24 hours for Candida albicans, and about 7 days for Aspergillus fumigatus. As for Candida albicans, about 5 to 7 single colonies were taken from the cultured medium, sufficiently suspended in 1 ml of 0.85% sterile saline solution, and adjusted to have an optical density of 0.095 to 0.107 at 530 nm. A preparation of a strain diluent was diluted in Roswell park memorial institute (RPMI) 1640 medium at a 1:10 ratio, and the resultant was diluted again at a 1:100 ratio to obtain an inoculation preparation for Candida albicans with a concentration of 1.0×10^3 to 5.0×10^3 CFU/mL. As for Aspergillus fumigatus, the cultured Sabouraud dextrose agar was added with 1 mL of 0.2% Tween 20 diluted with 0.85% sterile saline solution, and then the plate was shaken to detach conidium from the plate. The solution collected from the plate surface was transferred into a sterile tube, and placed at room temperature for 5 minutes to deposit heavy substances. The resulting supernatant was transferred into the sterile tube, sufficiently suspended for about 15 seconds, and prepared a strain diluent with a concentration of 0.4×10^6 to 5.0×10^6 CFU/mL using a hemocytometer. The thus prepared strain diluent was diluted in RPMI 1640 medium at a 1:100 ratio to obtain an inoculation preparation for Aspergillus fumigatus. Candida albicans was cultured at 35° C. for 24 hours and Aspergillus fumigatus was cultured at 35° C. for 48 hours, and the concentrations, at which growth is inhibited by 80% or 50% compared to a negative control group, were determined using alama blue color developing reagent. All experiments were repeated twice for each concentration, and the results of antifungal activities (MIC80 MIC50 μg/mL) are shown in Tables 1 to 2.

Candida albicans [2] = test: In vitro fungicidal activity test (MFC, minimum fungicidal concentration); conditions: minimum concentration with no fungal growth, Sabouraud dextrose agar plate, 35° C., 48 hours, naked eye; for MFC: Candida albicans
Procedure: As samples of fungicidal agents, 10 mM stock solutions were diluted 10-fold by adding with RPMI 1640 medium, followed by a 5-fold serial dilution, and used as the highest concentration for evaluation of antifungal activity (MIC). The samples with the highest concentration of the fungicidal agents were treated with a 2-fold serial dilution into 11 different concentrations, and the final concentrations were determined by mixing with the strains at a 1:1 ratio. In particular, the concentration of dimethylsulfoxide used as an excipient was made to a final 1% (VN). The evaluations of the fungicidal activity of Candida albicans were performed using a test plate already completed of antifungal activity, from the highest concentration of a given sample to the concentration right next to the concentration determined to be MIC. Test solutions at each concentration were pipetted about 5 times, all were collected (about a total of 225 μL), and added into a 12-well Sabouraud dextrose agar plate.

Aspergillus fumigatus = test: In vitro antifungal activity test (MIC), Aspergillus fumigatus; conditions: concentration at which growth is inhibited by 50% vs negative control, 35° C., 48 hours, RPMI 1640, alama blue; for MIC50: Aspergillus fumigatus
Procedure: as §1

MIC80 (Candida albicans [1])	MIC50 (Aspergillus fumigatus)	SMILES	MFC (Candida albicans [2])	Candida albicans MIC80 (Candida albicans [1])	Aspergillus fumigatus MIC50 (Aspergillus fumigatus)	Candida albicans MFC (Candida albicans [2])
0.06 µg/mL (≈ 0.192 µM)	1 µg/mL (≈ 3.2 µM)	Cn1cc(C(=O)NNc2cccc(Cl)c2)cc(Cl)c1=O [Example 26, 5-chloro-N′-(3-chlorophenyl)-1-methyl-6-oxo-1,6-dihydropyridine-3-carbohydrazide]				
0.13 µg/mL (≈ 0.404 µM)	0.5 µg/mL (≈ 1.55 µM)	O=C(NNc1cccc(F)c1)c1c(Cl)cc(=O)n2c1CCC2 [Example 33, 7-chloro-N′-(3-fluorophenyl)-5-oxo-1,2,3,5-tetrahydroindolizine-8-carbohydrazide]				
0.04 µg/mL (≈ 0.0943 µM)	0.7 µg/mL (≈ 1.65 µM)	O=C(NNc1cc(F)cc(F)c1)c1ccc(=O)n(Cc2ccc(C(F)(F)F)nc2)c1 [Example 53, N′-(3,5-difluorophenyl)-6-oxo-1-((6-(trifluoromethyl)pyridine-3-yl)methyl)-1,6-dihydropyridine-3-carbohydrazide]				
0.08 µg/mL (≈ 0.189 µM)	0.7 µg/mL (≈ 1.65 µM)	O=C(NNc1ccc(F)cc1F)c1ccc(=O)n(Cc2ccc(C(F)(F)F)nc2)c1 [Example 54, N′-(2,4-difluorophenyl)-6-oxo-1-((6-(trifluoromethyl)pyridine-3-yl)methyl)-1,6-dihydropyridine-3-carbohydrazide]				
0.25 µg/mL (≈ 0.816 µM)	> 32 µg/mL	OC(Cn1cncn1)(Cn1cncn1)c1ccc(F)cc1F [fluconazole, reference compound]	> 32 µg/mL			

The next lines start with the compound.

SMILES	MIC80 (Candida albicans [1])	MIC50 (Aspergillus fumigatus)	MFC (Candida albicans [2])	Candida albicans MIC80 (Candida albicans [1])	Aspergillus fumigatus MIC50 (Aspergillus fumigatus)	Candida albicans MFC (Candida albicans [2])
Cn1cc(C(=O)NNc2cccc(F)c2)ccc1=O [Example 2, N′-(3-fluorophenyl)-1-methyl-6-oxo-1,6-dihydropyridine-3-carbohydrazide]	0.02 µg/mL (≈ 0.0766 µM)		0.1 µg/mL (≈ 0.383 µM)			
Cn1cc(C(=O)NNc2cc(F)cc(F)c2)ccc1=O [Example 13, N′-(3,5-difluorophenyl)-1-methyl-6-oxo-1,6-dihydropyridine-3-carbohydrazide]	0.03 µg/mL (≈ 0.107 µM)	0.44 µg/mL (≈ 1.58 µM)	0.1 µg/mL (≈ 0.358 µM)			
COc1ncc(NNC(=O)c2ccc(=O)n(C)c2)cc1F [Example 21, N′-(5-fluoro-6-methoxypyridine-3-yl)-1-methyl-6-oxo-1,6-dihydropyridine-3-carbohydrazide]	0.03 µg/mL (≈ 0.103 µM)	0.5 µg/mL (≈ 1.71 µM)	0.1 µg/mL (≈ 0.342 µM)			
O=C(NNc1ccc(F)cc1)c1c(Cl)cc(=O)n2c1CCC2 [Example 34, 7-chloro-N′-(4-fluorophenyl)-5-oxo-1,2,3,5-tetrahydroindolizine-8-carbohydrazide]	0.25 µg/mL (≈ 0.777 µM)	1 µg/mL (≈ 3.11 µM)				
COc1ncc(NNC(=O)c2cc(-c3ccc(F)cc3)c(=O)n(C)c2)cc1F [Example 37, N′-(5-fluoro-6-methoxypyridine-3-yl)-5-(4-fluorophenyl)-1-methyl-6-oxo-1,6-dihydropyridine-3-carbohydrazide]	0.04 µg/mL (≈ 0.104 µM)	0.3 µg/mL (≈ 0.776 µM)	0.1 µg/mL (≈ 0.259 µM)			
COc1ncc(NNC(=O)c2cc(-c3ccc(Cl)cc3)c(=O)n(C)c2)cc1F [Example 38, 5-(4-chlorophenyl)-N′-(5-fluoro-6-methoxypyridine-3-yl)-1-methyl-6-oxo-1,6-dihydropyridine-3-carbohydrazide]	0.02 µg/mL (≈ 0.0497 µM)	0.3 µg/mL (≈ 0.745 µM)	0.1 µg/mL (≈ 0.248 µM)			
COc1ncc(NNC(=O)c2cc(-c3ccc(C(F)(F)F)cc3)c(=O)n(C)c2)cc1F [Example 39, N′-(5-fluoro-6-methoxypyridine-3-yl)-1-methyl-6-oxo-5-(4-(trifluoromethyl)phenyl)-1,6-dihydropyridine-3-carbohydrazide]	0.04 µg/mL (≈ 0.0917 µM)	0.7 µg/mL (≈ 1.6 µM)	0.2 µg/mL (≈ 0.458 µM)			
COc1ncc(NNC(=O)c2cc(-c3ccc(C#N)cc3)c(=O)n(C)c2)cc1F [Example 40, 5-(4-cyanophenyl)-N′-(5-fluoro-6-methoxypyridine-3-yl)-1-methyl-6-oxo-1,6-dihydropyridine-3-carbohydrazide]	0.04 µg/mL (≈ 0.102 µM)		0.2 µg/mL (≈ 0.508 µM)			
COc1ncc(NNC(=O)c2ccc(=O)n(-c3cccc(Cl)c3)c2)cc1F [Example 48, 1-(3-chlorophenyl)-N′-(5-fluoro-6-methoxypyridine-3-yl)-6-oxo-1,6-dihydropyridine-3-carbohydrazide]	0.04 µg/mL (≈ 0.103 µM)	0.6 µg/mL (≈ 1.54 µM)				
O=C(NNc1ccc(F)cc1F)c1ccc(=O)n(Cc2cscn2)c1 [Example 49, N′-(2,4-difluorophenyl)-6-oxo-1-(thiazol-4-ylmethyl)-1,6-dihydropyridine-3-carbohydrazide]	0.28 µg/mL (≈ 0.773 µM)	0.3 µg/mL (≈ 0.828 µM)				
CC[C@H](C)C[C@H](C)CCCCCCCCC(=O)N[C@H]1C[C@@H](O)[C@@H](NCCN)NC(=O)[C@@H]2[C@@H](O)CCN2C(=O)[C@H]([C@H](O)CCN)NC(=O)[C@H]([C@H](O)[C@@H](O)c2ccc(O)cc2)NC(=O)[C@@H]2C[C@@H](O)CN2C(=O)[C@H]([C@@H](C)O)NC1=O [caspofungin, reference compound]				0.25 µg/mL	0.3 µg/mL	4 µg/mL

— patent US9617216B2, “Antifungal oxodihydropyridinecarbohydrazide derivative” (Daewoong Pharmaceutical Co., Ltd., priority 2013, dated 2017)
